Earlier results on 15 molecules are cited in patent US20100197018A1, “USE OF SUBSTRATES AS PHARMACOLOGICAL CHAPERONES” (AMICUS THERAPEUTICS, INC., priority 2007, published 2010).

One data set deals with T1, iduronate-2-sulfatase (Homo sapiens, UniProt P22304).
T1 sequence (P22304 34-550): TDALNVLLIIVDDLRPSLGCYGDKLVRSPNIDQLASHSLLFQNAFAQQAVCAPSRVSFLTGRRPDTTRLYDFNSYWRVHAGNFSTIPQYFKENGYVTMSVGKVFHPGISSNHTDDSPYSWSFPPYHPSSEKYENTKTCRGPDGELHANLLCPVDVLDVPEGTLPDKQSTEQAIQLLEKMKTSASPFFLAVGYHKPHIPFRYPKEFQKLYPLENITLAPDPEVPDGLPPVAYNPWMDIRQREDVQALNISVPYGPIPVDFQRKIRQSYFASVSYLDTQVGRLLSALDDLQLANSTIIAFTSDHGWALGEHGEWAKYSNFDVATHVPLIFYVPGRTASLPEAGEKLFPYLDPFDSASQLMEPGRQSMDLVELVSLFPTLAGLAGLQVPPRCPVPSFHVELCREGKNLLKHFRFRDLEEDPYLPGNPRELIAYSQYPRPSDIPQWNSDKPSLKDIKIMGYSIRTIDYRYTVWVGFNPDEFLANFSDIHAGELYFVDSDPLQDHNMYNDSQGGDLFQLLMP
To be noted: for pH optimum: Table 4, cells marked * (not optimum pH) left out; for Relative catalytic efficiency: IdoA2S-anM = 1.0; for activity as % of maximal activity: at pH 6.3; for pH of maximal activity: text b65, highly sulfated tetrasaccharide substrates.

The target of another data set is T2, heparan-N-sulfatase (Homo sapiens, UniProt P51688).
T2 sequence (P51688 21-502): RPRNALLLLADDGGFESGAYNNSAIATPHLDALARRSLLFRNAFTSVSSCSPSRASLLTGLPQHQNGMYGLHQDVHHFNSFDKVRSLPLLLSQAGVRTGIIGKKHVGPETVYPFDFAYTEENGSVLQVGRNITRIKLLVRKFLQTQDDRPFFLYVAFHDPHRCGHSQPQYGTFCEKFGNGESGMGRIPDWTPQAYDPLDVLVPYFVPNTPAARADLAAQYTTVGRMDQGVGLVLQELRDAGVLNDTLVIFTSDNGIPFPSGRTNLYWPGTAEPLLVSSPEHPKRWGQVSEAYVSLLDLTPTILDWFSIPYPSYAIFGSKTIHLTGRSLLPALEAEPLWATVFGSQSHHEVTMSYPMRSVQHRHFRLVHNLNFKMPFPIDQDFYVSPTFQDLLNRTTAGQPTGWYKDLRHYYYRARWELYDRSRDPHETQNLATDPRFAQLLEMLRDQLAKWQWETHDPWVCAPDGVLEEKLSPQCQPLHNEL
To be noted: for Relative catalytic efficiency* / Km / kcat. (turnover number): 37°; for Relative catalytic efficiency*: pH (optimum), GlcNS = 1.00; for Km / kcat. (turnover number): pH: GlcNS-Ido 6.7, GlcNS-Ido2S 5.5, GlcNS-IdOA 5.6, GlcNS-IdoA-GlcNS-IdOA 5.6, GlcNS-IdoA2S-anM6S 3.6, GlcNS6S-Ido 4.2, GlcNS6S-Ido2S 3.8, GlcNS6S-IdOA 4.2; for pH optimum of the enzyme for the substrate: purified enzyme.

Data set [1] has as its target T3, N-acetyl-glucosamine-6-sulfate sulfatase (6S) Form A (Homo sapiens, UniProt P15586).
T3 sequence (P15586 37-552): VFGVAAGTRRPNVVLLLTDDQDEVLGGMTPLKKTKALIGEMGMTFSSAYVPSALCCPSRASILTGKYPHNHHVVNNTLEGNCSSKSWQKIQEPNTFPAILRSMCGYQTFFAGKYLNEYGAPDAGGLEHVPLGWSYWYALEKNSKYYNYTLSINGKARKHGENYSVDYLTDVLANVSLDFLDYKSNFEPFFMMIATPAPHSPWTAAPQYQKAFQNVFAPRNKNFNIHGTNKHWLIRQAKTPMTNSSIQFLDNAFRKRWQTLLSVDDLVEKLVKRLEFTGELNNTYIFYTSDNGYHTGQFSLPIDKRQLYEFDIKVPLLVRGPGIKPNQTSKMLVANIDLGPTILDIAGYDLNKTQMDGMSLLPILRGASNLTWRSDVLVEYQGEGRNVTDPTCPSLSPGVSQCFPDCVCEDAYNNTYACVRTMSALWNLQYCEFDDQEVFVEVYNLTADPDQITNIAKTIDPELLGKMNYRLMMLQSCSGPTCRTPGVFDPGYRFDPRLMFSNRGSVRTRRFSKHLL
Conditions: for kcat. (turnover number) / Relative catalytic efficiency* / Km: Form A; for Relative catalytic efficiency*: kcat./Km calculated relative to a value for GlcNAc6S = 1; for Km: read-out: Km; for pH optimum: Table 6.

Where [2] appears, read: at the optimum pH of the substrate analog.
[3] abbreviates: not optimum pH (*): IdoA2S-anM6S at pH 5.0, IdoA2S-anT4S at pH 4.0.

Like-named read-outs stand apart in the source and are kept apart here.

As to “L-O-(α-iduronic acid 2 sulphate)-(1-4)-D-β-(α-2-sulphaminoglucosamine)-(1-4)-O-(β-D-glucuronic or α-L-iduronic acid)-(1-4) D-O(α-N-acetylglucosamine-(1-3)-D-O-]-gulonic acid [IdoA2S-GlcNS-UA-GlcNAc-GlcOA]”, the pH optimum on iduronate-2-sulfatase is listed as 5.4. Also, on iduronate-2-sulfatase (setting [2]), the Km was 1.9 µM, the “kcat. (turnover no.)” value was 756 mol/min per mol of enzyme and the Relative catalytic efficiency was 47.5.
Regarding `O=C(O)[C@@H]1O[C@@H](O[C@H]2[C@H](O)[C@@H](CO)O[C@@H]2CO)[C@H](OS(=O)(=O)O)[C@@H](O)[C@@H]1O` [IdoA2S-anM, L-O-(α-iduronic acid 2-sulphate-(1-4)-D-β-2,5-anhydro-mannitol], on iduronate-2-sulfatase, the pH optimum is 5.4. On iduronate-2-sulfatase (setting [2]), the Km was 19.2 µM, the “kcat. (turnover no.)” value is given as 161 mol/min per mol of enzyme and the Relative catalytic efficiency was 1.0.
Turning to manganese chloride, the “effect of salt on activity of the enzyme against the substrates” value (shortened to “effect of salt on activity of the enzyme”) on iduronate-2-sulfatase was “no effect or increase the activity”.
Regarding `O=P(O)(O)O` [sodium phosphate], the “effect of salt on activity of the enzyme” value at iduronate-2-sulfatase is “inhibitory”.
Consider `O=S(=O)(O)N[C@H]1[C@@H](O[C@H]2[C@H](O)[C@@H](OS(=O)(=O)O)C(O)O[C@H]2CO)O[C@H](CO)[C@@H](O)[C@@H]1O` (stereo partly drawn) [GlcNS-Ido2S, O-(α-2-sulphaminoglucosamine)-(1-4)-L-6-idose 2-sulphate], for which, at heparan-N-sulfatase, the “Relative catalytic efficiency*” value is on record as 36, the Km is 4.1 µM, the “kcat. (turnover number)” value is 0.11 mol/min per mol of enzyme and the “pH optimum of the enzyme for the substrate” value is recorded as 5.5.
In the case of `[Cl-].[Cl-].[Mg+2]` [magnesium chloride], at iduronate-2-sulfatase, the “effect of salt on activity of the enzyme” value is given as “no effect or increase the activity”.
Turning to `O=C(O)[C@@H]1O[C@@H](O[C@H]2[C@H](O)[C@@H](CO)O[C@@H]2COS(=O)(=O)O)[C@H](OS(=O)(=O)O)[C@@H](O)[C@@H]1O` [IdoA2S-anM6S, L-O-(α-iduronic acid 2-sulphate)-(1-4)-D-β-2,5-anhydro-mannitol 6-sulphate], on iduronate-2-sulfatase, the pH optimum is 4.0. At iduronate-2-sulfatase (setting [2]), the Km is 4 µM, the “kcat. (turnover no.)” value is reported as 2114 mol/min per mol of enzyme and the Relative catalytic efficiency was 63.0. Besides, on iduronate-2-sulfatase (compared with IdoA2S-anM), the “increase in binding affinity (Km)” value is on record as 5 fold and the “increase in turnover (Kcat)” value is 13 fold. Besides, the “increase in catalytic activity” value on iduronate-2-sulfatase (compared with IdoA2S-anM (addition of a 6-sulfate ester group)) is listed as 63 fold. For the same molecule, at iduronate-2-sulfatase (setting [3]), the Michaelis constant (Km) was 2.5 µM, the “kcat. (turnover no.)” value is recorded as 905 mol/min per mol of enzyme and the Relative catalytic efficiency is on record as 43.1.
For the molecule `O=C[C@H](O)[C@@H](O)[C@H](O[C@H]1O[C@H](CO)[C@@H](O)[C@H](O)[C@H]1NS(=O)(=O)O)[C@@H](O)CO` [GlcNS-Ido, O-(α-2-sulphaminoglucosamine)-(1-4)-L-idose)], at heparan-N-sulfatase, the “Relative catalytic efficiency*” value is 7.40, the Km is 7.7 µM, the “kcat. (turnover number)” value is on record as 0.0414 mol/min per mol of enzyme and the “pH optimum of the enzyme for the substrate” value was 6.7.
With `O=S(=O)([O-])[O-].[Na+].[Na+]` [sodium sulfate], the “effect of salt on activity of the enzyme” value at iduronate-2-sulfatase is given as “inhibitory”.
Consider `[Cl-].[Na+]` [sodium chloride], for which the “effect of salt on activity of the enzyme” value on iduronate-2-sulfatase is “inhibitory”.
For “O-(α-L-iduronic acid 2-sulphate)-(1-4)-D-β-(α-2-sulphaminoglucosamine 6 sulphate)-(1-4)-L-O-(α-iduronic acid 2-sulphate)-(1-4)-D-O-2,5-anhydro[1-^3H]mannitol 6-sulphate [IdoA2S-GlcNS6S-IdoA2S-anM6S]”, on iduronate-2-sulfatase, the “pH range of activity” value is 5.0-6.5, the pH optimum is recorded as 5.7, the “activity as % of maximal activity” value is listed as roughly 90% and the “pH of maximal activity” value is listed as 5.7. Further, at iduronate-2-sulfatase (setting [2]), the Km is 1.4 µM, the “kcat. (turnover no.)” value is given as 2177 mol/min per mol of enzyme and the Relative catalytic efficiency is recorded as 186.7.
Regarding `CC(=O)N[C@H]1[C@@H](O[C@H]2[C@H](O)[C@@H](OS(=O)(=O)O)[C@H](O[C@H]3[C@H](O)[C@@H](CO)O[C@@H]3COS(=O)(=O)O)O[C@H]2C(=O)O)O[C@H](COS(=O)(=O)O)[C@@H](O)[C@@H]1O` [GlcNAc6S-IdoA2S-anM6S, O-(α-N-acetylglucosamine 6-sulphate)-(1-4)-L-O-(α-iduronic acid 2-sulphate)-(1-4)-D-O-2,5-anhydro-mannitol 6 sulphate], in data set [1], the “kcat. (turnover number)” value is 7.08 mol/min per mol of enzyme, the “Relative catalytic efficiency*” value is given as 402, the Michaelis constant (Km) is 0.76 µM and the pH optimum is listed as 4.3.
In the case of `N[C@H]1[C@@H](O[C@H]2[C@H](O)[C@@H](OS(=O)(=O)O)[C@H](O[C@H]3[C@H](O)[C@@H](CO)O[C@@H]3COS(=O)(=O)O)O[C@H]2C(=O)O)O[C@H](COS(=O)(=O)O)[C@@H](O)[C@@H]1O` [GlcNH6S-IdoA2S-anM6S, O-α-glucosamine 6-sulphate)-(1-4)-L-O-(α-iduronic acid 2-sulphate)-(1-4)-D-β-2,5-anhydro-mannitol 6-sulphate], in data set [1], the “kcat. (turnover number)” value is reported as 0.11 mol/min per mol of enzyme, the “Relative catalytic efficiency*” value is recorded as 14, the Km was 0.35 µM and the pH optimum is listed as 4.3.
Take “O-(α-L-idopyranosyluronic acid 2-sulfate)-(1-3)-2,5-anhydro-D-talitol 4-sulfate [IdoA2S-anT4S]”: the pH optimum at iduronate-2-sulfatase is listed as 5.0. For the same molecule, on iduronate-2-sulfatase (setting [2]), the Km is 0.7 µM, the “kcat. (turnover no.)” value was 507 mol/min per mol of enzyme and the Relative catalytic efficiency is 86.2. Besides, at iduronate-2-sulfatase (setting [3]), the Km was 1.1 µM, the “kcat. (turnover no.)” value is 270 mol/min per mol of enzyme and the Relative catalytic efficiency is on record as 29.3.
For “L-O-(α-iduronic acid 2 sulphate)-D-β-α-glucosamine 6-sulphate)-(1-4)-L-O-(α-iduronic acid 2-sulphate)-(1-4)-D-O-anhydro-mannitol 6-sulphate [IdoA2S-GlcNH6S-IdoA2S-anM6S]”, on iduronate-2-sulfatase, the “pH range of activity” value is reported as 4.2-6.0, the pH optimum is reported as 5.4, the “activity as % of maximal activity” value is roughly 12% and the “pH of maximal activity” value is listed as 5.1. Moreover, on iduronate-2-sulfatase (setting [2]), the Km was 2.5 µM, the “kcat. (turnover no.)” value was 1925 mol/min per mol of enzyme and the Relative catalytic efficiency was 91.7.

Broadly, the Km is the substrate concentration at which the rate is half of its maximum.
